From US8497307B2, “Aryl guanidine F1F0-ATPase inhibitors and related methods” (The Regents of the University of Michigan, priority 2008, dated 2013)

System: Ramos cells
Test: Cytotoxicity in Ramos cells (cell death)
Type: cell-based
Protocol: The compounds listed in Table 7 were tested for cytotoxicity in Ramos cells. The assay was conducted as described in K. M. Johnson et al. Chemistry & Biology 2005, 12, 485-496.

SMILES	EC50
CC(C)(C)c1ccccc1NC(=NC(=O)c1ccc(C(F)(F)F)cc1F)Nc1ccc2oc(=O)[nH]c2c1 [Compound I-132]	> 10 µM
N#Cc1cccc(C(=O)N=C(Nc2cccc(C(F)(F)F)c2)Nc2ccc3oc(=O)[nH]c3c2)c1 [Compound I-133]	> 10 µM
Cn1c(=O)oc2cc(NC(=NC(=O)c3ccc(C(F)(F)F)cc3)Nc3ccccc3C(C)(C)C)ccc21 [Compound I-134]	> 10 µM
O=C(N=C(Nc1cccc(C2CC2)c1)Nc1ccc2oc(=O)[nH]c2c1)c1ccc(C(F)(F)F)cc1 [Compound I-135]	> 10 µM
N#Cc1cccc(C(=O)N=C(Nc2cccc(C3CC3)c2)Nc2ccc3oc(=O)[nH]c3c2)c1 [Compound I-136]	< 10 µM
O=C(N=C(Nc1ccc(C2CC2)cc1)Nc1ccc2[nH]c(=O)oc2c1)c1ccc(C(F)(F)F)cc1 [Compound I-137]	< 10 µM
N#Cc1cccc(C(=O)N=C(Nc2ccc(C3CC3)cc2)Nc2ccc3[nH]c(=O)oc3c2)c1 [Compound I-138]	< 10 µM
O=C(N=C(Nc1ccc2[nH]ncc2c1)Nc1ccccc1C(F)(F)F)c1ccc(Br)cc1 [II-1]	< 10 µM
O=C(N=C(Nc1ccc2[nH]ncc2c1)Nc1ccccc1C(F)(F)F)c1ccc(Cl)cc1 [II-2]	< 10 µM
O=C(N=C(Nc1ccc2[nH]ncc2c1)Nc1ccccc1C(F)(F)F)c1cccc(Cl)c1 [II-3]	< 10 µM
O=C(N=C(Nc1ccc2[nH]ncc2c1)Nc1ccccc1C(F)(F)F)c1ccc(F)cc1 [II-4]	< 10 µM
CC(C)(C)c1ccccc1NC(=NC(=O)c1ccc(Br)cc1)Nc1ccc2[nH]ncc2c1 [II-5]	< 10 µM
CC(C)(C)c1ccccc1NC(=NC(=O)c1ccc(Cl)cc1)Nc1ccc2[nH]ncc2c1 [II-6]	< 10 µM
CC(C)(C)c1ccccc1NC(=NC(=O)c1cccc(Cl)c1)Nc1ccc2[nH]ncc2c1 [II-7]	< 10 µM
CC(C)(C)c1ccccc1NC(=NC(=O)c1ccc(F)cc1)Nc1ccc2[nH]ncc2c1 [II-8]	< 10 µM
O=C(N=C(Nc1ccc2ccccc2c1)Nc1ccc2[nH]ncc2c1)c1ccc(Br)cc1 [II-9]	< 10 µM
O=C(N=C(Nc1ccc2ccccc2c1)Nc1ccc2[nH]ncc2c1)c1ccc(Cl)cc1 [II-10]	< 10 µM
O=C(N=C(Nc1ccc2ccccc2c1)Nc1ccc2[nH]ncc2c1)c1cccc(Cl)c1 [II-11]	< 10 µM
O=C(N=C(Nc1ccc2ccccc2c1)Nc1ccc2[nH]ncc2c1)c1ccc(F)cc1 [II-12]	< 10 µM
O=C(N=C(Nc1ccc(-c2ccccc2)cc1)Nc1ccc2[nH]ncc2c1)c1ccc(Br)cc1 [II-13]	< 10 µM
O=C(N=C(Nc1ccc(-c2ccccc2)cc1)Nc1ccc2[nH]ncc2c1)c1ccc(Cl)cc1 [II-14]	< 10 µM

SMILES	EC50
O=C(N=C(Nc1ccc(-c2ccccc2)cc1)Nc1ccc2[nH]ncc2c1)c1cccc(Cl)c1 [II-15]	< 10 µM
O=C(N=C(Nc1ccc(-c2ccccc2)cc1)Nc1ccc2[nH]ncc2c1)c1ccc(F)cc1 [II-16]	< 10 µM
O=C(N=C(Nc1cccc(C(F)(F)F)c1)Nc1ccc2[nH]ncc2c1)c1ccc(C(F)(F)F)cc1 [II-17]	< 10 µM
CC(C)(C)c1ccccc1NC(=NC(=O)c1ccc(C(F)(F)F)cc1)Nc1ccc2[nH]ncc2c1 [II-18]	< 10 µM
O=C(N=C(Nc1ccc(Cl)cc1)Nc1ccc2[nH]ncc2c1)c1ccc(C(F)(F)F)cc1 [II-19]	< 10 µM
O=C(N=C(Nc1cccc(Cl)c1)Nc1ccc2[nH]ncc2c1)c1ccc(C(F)(F)F)cc1 [II-20]	< 10 µM
O=C(N=C(Nc1cccc(C(F)(F)F)c1)Nc1ccc2[nH]ncc2c1)c1ccc(Cl)cc1 [II-21]	< 10 µM
O=C(N=C(Nc1ccc(Cl)cc1)Nc1ccc2[nH]ncc2c1)c1ccc(Cl)cc1 [II-22]	< 10 µM
O=C(N=C(Nc1cccc(Cl)c1)Nc1ccc2[nH]ncc2c1)c1ccc(Cl)cc1 [II-23]	< 10 µM
O=C(N=C(NCCc1c[nH]cn1)Nc1ccccc1C(F)(F)F)c1ccc(Br)cc1 [III-1]	> 10 µM
O=C(N=C(NCCc1c[nH]cn1)Nc1ccccc1C(F)(F)F)c1ccc(Cl)cc1 [III-2]	> 10 µM
O=C(N=C(NCCc1c[nH]cn1)Nc1ccccc1C(F)(F)F)c1ccc(F)cc1 [III-3]	> 10 µM
CC(C)(C)c1ccccc1NC(=NC(=O)c1ccc(Br)cc1)NCCc1c[nH]cn1 [III-4]	< 10 µM
CC(C)(C)c1ccccc1NC(=NC(=O)c1ccc(Cl)cc1)NCCc1c[nH]cn1 [III-5]	< 10 µM
CC(C)(C)c1ccccc1NC(=NC(=O)c1cccc(Cl)c1)NCCc1c[nH]cn1 [III-6]	< 10 µM
CC(C)(C)c1ccccc1NC(=NC(=O)c1ccc(F)cc1)NCCc1c[nH]cn1 [III-7]	> 10 µM
O=C(N=C(NCCc1c[nH]cn1)Nc1ccc2ccccc2c1)c1ccc(Br)cc1 [III-8]	< 10 µM
O=C(N=C(NCCc1c[nH]cn1)Nc1ccc2ccccc2c1)c1ccc(Cl)cc1 [III-9]	> 10 µM
O=C(N=C(NCCc1c[nH]cn1)Nc1ccc2ccccc2c1)c1cccc(Cl)c1 [III-10]	< 10 µM
O=C(N=C(NCCc1c[nH]cn1)Nc1ccc2ccccc2c1)c1ccc(F)cc1 [III-11]	> 10 µM
